From patent US6365591B1, “Isoxazolecarboxamide derivatives” (Recordati, S.A., Chemical and Pharmacueticals Company, priority 1999, dated 2002)
Read-outs that look alike come from different tables or passages of the source.

Key:
[1] = molecular target: T1, α1L adrenoceptor (Oryctolagus cuniculus, UniProt O02824); test: Functional antagonism of noradrenaline-induced contractions of rabbit aorta pretreated with chloroethylclonidine; assay type: biochemical
T1 sequence (O02824 1-466): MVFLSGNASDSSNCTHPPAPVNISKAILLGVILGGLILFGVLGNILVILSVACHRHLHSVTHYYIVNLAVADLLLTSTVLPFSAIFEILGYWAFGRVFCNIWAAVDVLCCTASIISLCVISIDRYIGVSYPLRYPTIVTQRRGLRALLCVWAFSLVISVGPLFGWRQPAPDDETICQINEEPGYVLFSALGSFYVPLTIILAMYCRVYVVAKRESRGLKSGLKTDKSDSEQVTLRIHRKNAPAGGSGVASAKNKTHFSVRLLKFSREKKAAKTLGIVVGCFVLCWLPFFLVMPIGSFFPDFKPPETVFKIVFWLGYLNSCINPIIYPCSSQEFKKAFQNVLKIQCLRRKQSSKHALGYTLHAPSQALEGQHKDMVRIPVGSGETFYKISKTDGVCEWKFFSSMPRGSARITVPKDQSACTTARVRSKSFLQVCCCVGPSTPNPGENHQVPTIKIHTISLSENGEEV
Method: Adult male New Zealand rabbits were sacrificed by cervical dislocation. The aorta was removed, placed in Krebs-Henseleit buffer and dissected free of adhering tissue. […] Desmethylimipramine (0.1 μM) and corticosterone (1 μM) to block neuronal and extraneuronal uptake of NA, (±)-propranol (1 μM) to block β adrenoceptors and yohimbine (0.1 μM) to block α2 adrenoceptors were added to the buffer.
Each antagonist concentration was tested using 2-3 aortic rings from different rabbits.
The logarithm of these dose ratio −1 was plotted against the logarithm of the compound concentrations (Schild plot) to evaluate the affinity constant Kb.

[2] = system: recombinant α1a-adrenoceptor; details: literature statement (Leonardi et al. 1997); cited from earlier work
[3] = system: prostatic urethral pressure (noradrenaline-induced); details: cited from earlier work
[4] = system: prostatic urethral pressure (hypogastric-nerve stimulation); details: anaesthetised dogs, i.v.; data from Leonardi et al. 1997; cited from earlier work
[5] = system: diastolic blood pressure; details: cited from earlier work; for DBP ED25: dose inducing a 25% decrease in diastolic blood pressure: anaesthetised dogs, i.v., data from Leonardi et al. 1997
[6] = molecular target: T2, human 5-HT1A-serotoninergic receptor (Homo sapiens, UniProt P08908); test: Radioligand binding ([3H]8-OH-DPAT) to cloned 5-HT1A receptor in HeLa cell membranes; details: mean Ki, read-out: Affinity for 5-HT1A receptor, Ki
T2 construct: expressed in transfected cells; host or cells: HeLa
T2 sequence (P08908 1-422): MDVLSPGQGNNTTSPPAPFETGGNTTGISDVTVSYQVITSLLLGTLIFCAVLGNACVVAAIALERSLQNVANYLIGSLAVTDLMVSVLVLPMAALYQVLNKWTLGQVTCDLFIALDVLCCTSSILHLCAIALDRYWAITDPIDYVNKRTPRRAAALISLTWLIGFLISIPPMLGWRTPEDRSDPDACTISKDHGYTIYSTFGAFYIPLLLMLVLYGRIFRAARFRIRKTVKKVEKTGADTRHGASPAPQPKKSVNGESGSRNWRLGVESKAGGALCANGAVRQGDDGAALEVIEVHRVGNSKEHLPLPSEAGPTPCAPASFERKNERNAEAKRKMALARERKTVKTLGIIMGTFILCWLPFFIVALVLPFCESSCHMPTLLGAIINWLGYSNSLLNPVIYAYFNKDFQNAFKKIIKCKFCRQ
From the text: Data were expressed as mean Ki.

[7] = system: diastolic blood pressure; test: Diastolic blood pressure in anaesthetised dogs, i.v. administration; assay type: in vivo, dog
Method: (§1) Effects on Urethral Contractions (Induced by Noradrenaline Injection and Hypogastric-nerve Stimulation) and on Blood Pressure in Dogs After Intravenous Administration
(§2) The experiments were performed according to the method of Imagawa et al. (J. Pharmacol. Methods, 22:103-111, 1989) with substantial modifications, as follows: adult male beagle dogs, weighing 8-10 kg, were anaesthetised with pentobarbital sodium (30 mg/kg i.v. and 2 mg/kg/h i.v.), intubated and spontaneously ventilated with room air. In order to monitor systemic blood pressure (BP), a polyethylene (PE) catheter was introduced into the aortic arch through the left femoral artery. A collateral of the left femoral vein was cannulated for infusion of anaesthetic, and the right femoral vein was cannulated for administration of the compounds. […] Prostatic urethral pressure was monitored with a Mikro-tip catheter (5F) introduced into the bladder via the external urethral meatus, and withdrawn until the pressure transducer was positioned in the prostatic region of the urethra. […]
(§3) After a stabilizing period following the surgical procedure (30 minutes), in which arterial and prostatic urethral pressure were continuously monitored as basal values, i.a. administration of NA and stimulation of the hypogastric nerve were alternately made at intervals of 10 minutes. […]

[8] = molecular target: T3, recombinant α1a-adrenoceptor (UniProt P35348); details: read-out: Affinity for recombinant α1a-adrenoceptor subtype, Ki; [3H]prazosin, membranes of transfected cells; mean Ki
T3 sequence (P35348 1-466): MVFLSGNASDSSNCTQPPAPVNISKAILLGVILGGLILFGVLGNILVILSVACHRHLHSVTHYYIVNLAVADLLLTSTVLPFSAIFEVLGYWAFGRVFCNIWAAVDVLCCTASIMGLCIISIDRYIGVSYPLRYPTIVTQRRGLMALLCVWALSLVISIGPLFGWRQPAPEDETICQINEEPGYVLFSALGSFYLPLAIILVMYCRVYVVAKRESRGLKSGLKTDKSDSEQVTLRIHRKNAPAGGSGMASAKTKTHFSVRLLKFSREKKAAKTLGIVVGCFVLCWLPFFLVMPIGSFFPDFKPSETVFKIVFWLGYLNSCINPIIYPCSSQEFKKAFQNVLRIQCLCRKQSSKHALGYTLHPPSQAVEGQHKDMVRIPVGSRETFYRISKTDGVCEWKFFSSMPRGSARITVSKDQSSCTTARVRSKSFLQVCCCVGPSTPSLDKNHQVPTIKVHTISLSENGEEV
Method: (§4) Determination of Affinity for Cloned α1 Adrenergic Receptors and 5-HT1A Serotoninergic Receptors by Radioligand Binding Assay
(§5) Determination of affinity for cloned subtypes of the α1-adrenoceptor was performed in membranes from cells transfected by electroporation with DNA expressing the genes encoding each α1-adrenoceptor subtype.
(§6) Non-specific binding was determined in the presence of 10 μM phentolamine. Incubation was stopped by addition of ice-cold Tris buffer and rapid filtration through 0.2%-polyethyleneimine pretreated Schleicher & Schuell GF52 filters.

[9] = molecular target: T4, recombinant α1b-adrenoceptor (Homo sapiens, UniProt P35368); test: biochemical
T4 sequence (P35368 1-520): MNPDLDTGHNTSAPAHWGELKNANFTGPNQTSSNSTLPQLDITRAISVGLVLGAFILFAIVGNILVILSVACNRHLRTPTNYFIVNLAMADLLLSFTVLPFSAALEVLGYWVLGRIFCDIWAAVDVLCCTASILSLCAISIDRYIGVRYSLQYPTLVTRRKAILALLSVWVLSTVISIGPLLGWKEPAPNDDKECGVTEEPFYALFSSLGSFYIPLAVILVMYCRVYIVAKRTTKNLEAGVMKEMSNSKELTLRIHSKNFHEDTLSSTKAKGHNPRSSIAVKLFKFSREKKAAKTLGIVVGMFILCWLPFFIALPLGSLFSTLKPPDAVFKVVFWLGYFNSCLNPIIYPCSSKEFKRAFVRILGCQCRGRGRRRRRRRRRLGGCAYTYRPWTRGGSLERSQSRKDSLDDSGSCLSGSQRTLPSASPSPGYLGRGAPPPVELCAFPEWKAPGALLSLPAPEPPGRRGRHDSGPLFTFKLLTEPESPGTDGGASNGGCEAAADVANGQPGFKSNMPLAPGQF
Method: as §4, §5, §6

[10] = system: prostatic urethral pressure (noradrenaline-induced); test: Urethral contractions induced by intraarterial noradrenaline in anaesthetised dogs, i.v. administration; assay type: in vivo, dog
Method: as §1, §2, §3

[11] = system: prostatic urethral pressure (hypogastric-nerve stimulation); test: Urethral contractions induced by hypogastric-nerve stimulation in anaesthetised dogs, i.v. administration; assay type: in vivo, dog
Method: as §1, §2, §3

[12] = molecular target: T5, recombinant α1d-adrenoceptor (UniProt P25100); details: [3H]prazosin, membranes of transfected cells; mean Ki
T5 sequence (P25100 1-572): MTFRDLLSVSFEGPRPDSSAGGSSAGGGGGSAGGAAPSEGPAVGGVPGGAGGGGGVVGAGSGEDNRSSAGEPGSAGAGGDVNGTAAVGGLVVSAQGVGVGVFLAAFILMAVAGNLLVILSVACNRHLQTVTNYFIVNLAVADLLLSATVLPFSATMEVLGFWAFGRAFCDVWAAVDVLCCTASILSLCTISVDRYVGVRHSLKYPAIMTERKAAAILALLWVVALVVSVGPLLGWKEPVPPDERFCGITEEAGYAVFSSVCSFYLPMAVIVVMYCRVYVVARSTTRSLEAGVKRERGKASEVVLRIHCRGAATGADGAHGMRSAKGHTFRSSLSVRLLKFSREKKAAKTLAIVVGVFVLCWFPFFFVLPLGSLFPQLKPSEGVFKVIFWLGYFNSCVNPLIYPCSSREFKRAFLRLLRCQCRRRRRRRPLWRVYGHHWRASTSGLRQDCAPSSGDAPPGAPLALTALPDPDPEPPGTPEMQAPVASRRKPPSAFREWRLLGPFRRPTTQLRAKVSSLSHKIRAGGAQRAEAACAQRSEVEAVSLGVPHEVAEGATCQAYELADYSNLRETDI
Method: as §4, §5, §6

[13] = dog model, literature (Leonardi et al. 1997)

Functional affinity for the α1L adrenoceptor subtype, pKb [1]	Ki [6] [nM]	Ki [8] [nM]	Ki [9] [nM]	Affinity for recombinant α1d-adrenoceptor subtype, Ki [12]	SMILES	affinity for the α1A adrenoceptor [2]	UP ID50 NA: dose inhibiting by 50% the urethral contractions induced by noradrenaline ([3]; anaesthetised dogs, i.v., data from Leonardi et al. 1997) [mg/kg]	inhibition of contractility of the prostatic urethra [3, 13]	UP ID50 HYP: dose inhibiting by 50% the urethral contractions induced by hypogastric-nerve stimulation [4] [mg/kg]	DBP ED25: dose inducing a 25% decrease in diastolic blood pressure ([5]; first of two DBP values (the one that gives R1, NA)) [mg/kg]	DBP ED25: dose inducing a 25% decrease in diastolic blood pressure ([5]; second of two DBP values (the one that gives R2, HYP)) [mg/kg]	effects on blood pressure [5, 13]	DBP ED25: dose inducing a 25% decrease in diastolic blood pressure [7] [mg/kg]	UP ID50 NA: dose inhibiting by 50% the urethral contractions induced by noradrenaline [10] [mg/kg]	UP ID50 HYP: dose inhibiting by 50% the urethral contractions induced by hypogastric-nerve stimulation [11] [mg/kg]
8.91					COc1ccccc1N1CCN(CCCNC(=O)c2cccc3c(=O)c(C)c(-c4ccccc4)oc23)CC1 [Compound A]	good affinity	0.0024	selectively inhibit contractility of the prostatic urethra	0.0067	0.243	0.177	without substantial effects on blood pressure			
	436	0.77	23.6		COc1ccc(Cl)cc1N1CCN(CCCNC(=O)c2c(-c3ccccc3)noc2C)CC1 [Example 1, N-{3-[4-(5-Chloro-2-methoxyphenyl)-1-piperazinyl]propyl}-5-methyl-3-phenylisoxazole-4-carboxamide]								0.3545		
	317	0.35	69.5		Cc1onc(-c2ccccc2)c1C(=O)NCCCN1CCN(c2ccc(F)cc2OCC(F)(F)F)CC1 [Example 6, N-{3-[4-[4-Fluoro-2-(2,2,2-trifluoroethoxy)phenyl]-1-piperazinyl]propyl}-5-methyl-3-phenylisoxazole-4-carboxamide]								0.1967	0.0024	0.0045
	202		28.1	25/81	O=C(NCCCN1CCN(c2ccc(F)cc2OCC(F)(F)F)CC1)c1conc1-c1ccc(F)cc1 [Example 8, 3-(4-Fluorophenyl)-N-[3-[4-[4-fluoro-2-(2,2,2-trifluoroethoxy)phenyl]-1-piperazinyl]propyl]-isoxazole-4-carboxamide]										
